± gives the standard deviation of the averaged measurements.
Columns and labels:
Assay in all cases: level (log10 ratio to DMSO vehicle control); higher = higher biomarker level / cell amount than vehicle control
[1] = compound: C=CC(=O)OCC(F)(F)C(F)(F)C(F)(F)COC(=O)C=C [1H,1H,5H,5H-Perfluoro-1,5-pentanediol diacrylate]; conditions: 6700 nM; in DMSO
Procedure: (§1)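 BioMAP Diversity Plus panel of 12 human primary cell co-culture systems (3C, 4H, LPS, SAg, BT, BF4T, BE3C, CASM3C, HDF3CGF, KF3CT, MyoF, Mphg). Compounds were added 1 h before stimulation and left for 24 h (MyoF 48 h; BT 72 h for soluble read-outs or 6 d for IgG). Biomarkers were read by ELISA, cytotoxicity by SRB, PBMC viability and proliferation by Alamar Blue. Each well value was divided by the mean of 8 DMSO control wells on the same plate and log10 transformed; duplicate blinded samples were tested at 4 concentrations.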

[2] = compound: COC(=O)C(F)(F)C(F)(F)OC(F)(C(F)(F)F)C(F)(F)OC(F)=C(F)F [Methyl perfluoro(3-(1-ethenyloxypropan-2-yloxy)propanoate)]; conditions: in DMSO
Procedure: as §1

[3] = compound: FC(F)(F)C(F)(F)C(F)(F)C(F)(F)C(F)(F)C(F)(F)C(F)(F)I [1-Iodopentadecafluoroheptane]; conditions: in DMSO
Procedure: as §1

Nonafluoropentanamide = compound: NC(=O)C(F)(F)C(F)(F)C(F)(F)C(F)(F)F [Nonafluoropentanamide]; conditions: in DMSO
Procedure: as §1

[4] = compound: NC(=O)C(F)(F)C(F)(F)C(F)(F)C(F)F; conditions: in DMSO
Procedure: as §1

[5] = compound: O=C(O)C=CC(F)(C(F)(F)F)C(F)(F)F [3-(Perfluoroisopropyl)-2-propenoic acid]; conditions: in DMSO
Procedure: as §1

[6] = compound: O=S(=O)(O)CCC(F)(F)C(F)(F)C(F)(F)C(F)(F)C(F)(F)C(F)(F)F [6:2 Fluorotelomer sulfonic acid]; conditions: in DMSO
Procedure: as §1

Hexafluoroamylene glycol = compound: OCC(F)(F)C(F)(F)C(F)(F)CO [Hexafluoroamylene glycol]; conditions: in DMSO
Procedure: as §1

Test System	level (log10) [1]	level (log10) ([2]; 6700 nM)	level (log10) ([2]; 20000 nM)	level (log10) ([3]; 6700 nM)	level (log10) ([3]; 20000 nM)	level (log10) (Nonafluoropentanamide; 6700 nM)	level (log10) (Nonafluoropentanamide; 20000 nM)	level (log10) (Nonafluoropentanamide; 60000 nM)	level (log10) ([4]; 6700 nM)	level (log10) ([4]; 20000 nM)	level (log10) ([4]; 60000 nM)	level (log10) ([5]; 6700 nM)	level (log10) ([5]; 20000 nM)	level (log10) ([5]; 60000 nM)	level (log10) ([6]; 6700 nM)	level (log10) ([6]; 20000 nM)	level (log10) ([6]; 60000 nM)	level (log10) (Hexafluoroamylene glycol; 6700 nM)	level (log10) (Hexafluoroamylene glycol; 20000 nM)	level (log10) (Hexafluoroamylene glycol; 60000 nM)
MyoF:SRB	-0.0205 ± 0.0035	0.004 ± 0.0042	0.018 ± 0.0099	-0.0135 ± 0.00071	-0.131 ± 0.012	-0.003 ± 0.0085	0.009 ± 0.0085	0.005 ± 0.016	-0.006 ± 0.0042	-0.0175 ± 0.012	-0.003	-0.005 ± 0.0014	-0.0085 ± 0.0035	0 ± 0.018	-0.002 ± 0.0014	0.0005 ± 0.0092	-0.0015 ± 0.0021	0.002 ± 0.0028	-0.0045 ± 0.0035	-0.002 ± 0.0057
MyoF:PAI-I	-0.0055 ± 0.03	0.0105 ± 0.0035	0.0315 ± 0.0078	-0.013 ± 0.016	-0.075	0.006 ± 0.011	0.012 ± 0.0057	0.021 ± 0.0014	-0.0125 ± 0.013	-0.0125 ± 0.0064	0.005 ± 0.018	0.0125 ± 0.0078	0.007 ± 0.0099	0.009 ± 0.0014	-0.0035 ± 0.0021	-0.011 ± 0.0014	-0.0035 ± 0.015	-0.0045 ± 0.0064	-0.0105 ± 0.00071	0.01 ± 0.011
KF3CT:CXCL10/IP-10	-0.023 ± 0.0085	-0.0235 ± 0.0021	-0.023 ± 0.0057	-0.005 ± 0.014	-0.0085 ± 0.00071	-0.011 ± 0.0071	0.009 ± 0.0042	-0.001 ± 0.017	-0.001 ± 0.0014	-0.001 ± 0.013	0.0025 ± 0.0064	0.0105 ± 0.035	0.0075 ± 0.032	0.0125 ± 0.023	-0.0105 ± 0.011	-0.0055 ± 0.015	-0.0135 ± 0.00071	0.0015 ± 0.015	-0.008 ± 0.0099	-0.0035 ± 0.0092
4H:CCL26/Eotaxin-3	-0.214 ± 0.037	-0.001 ± 0.016	-0.0425 ± 0.026	0.0365 ± 0.016	0.032 ± 0.027	-0.0005 ± 0.0035	0.0195 ± 0.00071	0.066 ± 0.017	0.0095 ± 0.037	0.0315 ± 0.029	0.0275 ± 0.016	-0.011 ± 0.0014	-0.011 ± 0.0014	0.016 ± 0.0085	0.017 ± 0.0014	-0.0285 ± 0.023	-0.095 ± 0.018	0.0655 ± 0.0021	0.0725 ± 0.015	0.0585 ± 0.0064
LPS:CD40	-0.209 ± 0.024	0.0235 ± 0.035	-0.0365 ± 0.022	0.0645 ± 0.11	-0.006 ± 0.15	0.002 ± 0.038	-0.008 ± 0.068	0.0015 ± 0.035	-0.0125 ± 0.029	-0.0045 ± 0.018	-0.03 ± 0.017	-0.008 ± 0.0085	0.008 ± 0.048	-0.017 ± 0.079	0.025 ± 0.048	0.0165 ± 0.037	-0.015 ± 0.024	0.035 ± 0.024	0.0385 ± 0.04	0.028 ± 0.04
CASM3C:CCL2/MCP-1	0 ± 0.0085	-0.001 ± 0.0014	0.008 ± 0.016	-0.01 ± 0.0042	0.005 ± 0.018	-0.014 ± 0.0028	0.001 ± 0.0099	-0.001 ± 0.0014	-0.0055 ± 0.013	-0.011 ± 0.018	0.015 ± 0.045	0.007 ± 0.017	-0.0055 ± 0.011	0.023 ± 0.044	-0.0125 ± 0.011	-0.01	0.0225 ± 0.032	-0.0085 ± 0.0064	-0.014 ± 0.011	0.012 ± 0.047
CASM3C:CD141/Thrombomodulin	0.081 ± 0.0042	-0.0085 ± 0.005	0.023 ± 0.018	-0.0595 ± 0.021	-0.0445 ± 0.021	0.011 ± 0.089	-0.024 ± 0.064	-0.0285 ± 0.06	-0.008 ± 0.0042	0.0085 ± 0.025	0.0085 ± 0.0092	-0.0215 ± 0.011	-0.001 ± 0.023	0.0075 ± 0.033	-0.015 ± 0.037	-0.0175 ± 0.063	-0.033 ± 0.021	0.009 ± 0.041	0 ± 0.05	0.0135 ± 0.037
CASM3C:CD106/VCAM-1	-0.119 ± 0.011	-0.024 ± 0.011	-0.04 ± 0.021	-0.0125 ± 0.005	-0.019 ± 0.034	-0.0405 ± 0.039	-0.0105 ± 0.0035	0.01 ± 0.042	-0.009 ± 0.0057	-0.003 ± 0.014	-0.008 ± 0.014	-0.0315 ± 0.013	-0.015 ± 0.0014	-0.0045 ± 0.071	-0.008 ± 0.011	-0.0325 ± 0.022	-0.0605 ± 0.026	-0.0015 ± 0.023	-0.012 ± 0.025	-0.0015 ± 0.021
LPS:CCL2/MCP-1	-0.042 ± 0.014	-0.0235 ± 0.00071	0.013 ± 0.025	0.0035 ± 0.00071	0.0225 ± 0.0021	0.005 ± 0.011	0.022 ± 0.035	0.0325 ± 0.039	0.009 ± 0.045	0.005 ± 0.042	0.03 ± 0.013	0.004 ± 0.0085	-0.0155 ± 0.013	-0.0015 ± 0.0021	0.0095 ± 0.0021	0.037 ± 0.018	0.056 ± 0.037	0.0055 ± 0.012	-0.009 ± 0.03	0.0135 ± 0.04
3C:CD142/Tissue Factor	-0.29 ± 0.1	0.0415 ± 0.064	0.0255 ± 0.0064	-0.0085 ± 0.015	-0.052 ± 0.076	-0.049 ± 0.041	-0.0275 ± 0.04	-0.067 ± 0.044	-0.0025 ± 0.066	0.006 ± 0.033	0.0115 ± 0.036	-0.018 ± 0.065	-0.036 ± 0.048	0.003 ± 0.061	-0.0065 ± 0.029	0.006 ± 0.021	0.0155 ± 0.064	0.014 ± 0.1	0.013 ± 0.062	0.009 ± 0.1
MyoF:Collagen I	-0.0165 ± 0.0035	-0.007 ± 0.011	0.0095 ± 0.019	-0.0495 ± 0.0021	-0.339 ± 0.012	-0.015 ± 0.025	-0.0085 ± 0.047	0.001 ± 0.0071	-0.0115 ± 0.015	-0.002 ± 0.02	0.006 ± 0.017	-0.0025 ± 0.012	-0.002 ± 0.0042	0.002 ± 0.0085	0.011 ± 0.025	-0.022 ± 0.016	0 ± 0.0085	0.012 ± 0.0028	-0.0045 ± 0.016	0.019 ± 0.017
CASM3C:HLA-DR	-0.0345 ± 0.018	0.0145 ± 0.015	0.0155 ± 0.022	-0.0255 ± 0.023	0.008 ± 0.023	-0.0315 ± 0.005	-0.0005 ± 0.036	-0.0275 ± 0.021	-0.0125 ± 0.042	-0.0075 ± 0.016	-0.008 ± 0.0014	-0.033 ± 0.011	-0.0465 ± 0.022	0.0095 ± 0.044	0.0245 ± 0.005	-0.0115 ± 0.0035	-0.001 ± 0.0085	0.014 ± 0.016	0.0095 ± 0.015	-0.0015 ± 0.028
lMphg:sIL-10	-0.13 ± 0.035	-0.0355 ± 0.0035	-0.102 ± 0.04	0.004 ± 0.081	-0.0995 ± 0.021	-0.0615 ± 0.044	-0.0475 ± 0.00071	0.0505 ± 0.073	-0.013 ± 0.023	-0.0715 ± 0.005	-0.021 ± 0.047	-0.055 ± 0.064	-0.048 ± 0.017	-0.082 ± 0.0071	-0.025 ± 0.037	-0.015 ± 0.02	-0.049 ± 0.0057	-0.0035 ± 0.0092	-0.0155 ± 0.016	-0.0135 ± 0.0021
3C:CD141/Thrombomodulin	-0.124 ± 0.013	-0.036 ± 0.02	-0.028 ± 0.034	-0.0215 ± 0.071	-0.008 ± 0.081	-0.0635 ± 0.074	-0.0235 ± 0.0035	-0.069 ± 0.051	-0.0285 ± 0.074	0 ± 0.03	-0.0075 ± 0.026	-0.0125 ± 0.023	-0.006 ± 0.0057	0.0045 ± 0.016	-0.0065 ± 0.05	-0.0475 ± 0.019	-0.0415 ± 0.033	0.0175 ± 0.052	-0.01 ± 0.033	-0.011 ± 0.088

Source: the supplement of paper PMC10331698
